Patent publication US10876115B2, “Method for assaying MicroRNA, cancer therapeutic agent, and medical composition containing same for cancer therapy” (National University Corporation Tokyo Medical and Dental …, priority 2013, dated 2020)

Tested on: transcriptional activity of NRF2 (ARE activity)
Assay: miRNA library screening using ARE-luciferase reporter system
Assay type: cell-based, human
Conditions: HeLa cells, 20 nmol/L miRNA, 48 hours after transfection, luciferase activity per living cell
Method: The luciferase reporter plasmid was prepared by inserting a human NQO-1 promoter region 5′-[…]-3′ (SEQ ID NO: 19) including an antioxidant response element (ARE) into an Mlu1/Xho1 site in pGL3 vector (Promega). Specifically, a pair of synthetic oligonucleotides complementary with each other shown in Table 2 (upper; SEQ ID NO: 20, lower; SEQ ID NO: 21) were annealed, to thereby form a double-stranded DNA, and a double-stranded DNA having cohesive ends complementary to the Mlu1/Xho1 site was prepared by use of Mlu1 and Xho1. The thus-produced double-stranded DNA fragment was inserted into the Mlu1/Xho1 site, to thereby yield a recombinant pGL3 (reporter plasmid) of interest.
Firstly, the reporter plasmid was transiently transfected into HeLa cells (1×10^7 cells/dish) in a 10 cm dish. 24 hours after transfection, the cells (1×10^4 cells/well) were seeded on a 96-well plate, and the next day, 20 nmol/L of each of the 470 double-stranded RNA fragments, derived from Pre-miRNA precursor library-Human V3 (Ambion) or control miRNA was transfected. After two days, firefly luciferase activity was measured by means of a microplate reader (ARVOmx; Perkinelmer) using Bright-Glo Luciferase Assay System (Promega). At the same time, living cells were detected through CV staining assay. ARE activity was calculated from the luciferase activity per living cell.
For the screening of 470 double-stranded RNAs, HeLa cells were sequentially transfected with each miRNA together with the reporter plasmid, and then the ARE activity in each transfected cell was calculated as the luciferase activity per living cell, as measured by the crystal violet (CV) staining assay. Briefly, the ARE-luciferase reporter plasmid and each miRNA from the library were sequentially transfected into HeLa cells, and after 48 hours, luciferase activity or the number of living cells was measured using the Bright-GIo Luciferase Assay System or crystal violet (CV) staining assay, respectively. The ARE activity for each miRNA-transfected cell was calculated as the luciferase activity per living cell.
The ARE activity relative to that in control-miRNA-transfected cells is indicated on the vertical axis. Eight miRNAs with a relative ratio of 0.5 or less were identified as candidates by this screening system. Also, eight miRNAs with a relative ratio of 1.5 or more were similarly identified as candidates by this screening system.

| Substance | ARE activity relative to that in control-miRNA-transfected cells (relative ratio) |
| --- | --- |
| hsa-miR-153: low-value miRNA from Pre-miRNA precursor library; mature sequence UUGCAUAGUCACAAAAGUGAUC, SEQ ID NO: 7 (listed as RNA, chemistry not given here; listed as Homo sapiens) | large decrease |
| hsa-miR-337: low-value miRNA from Pre-miRNA precursor library; mature sequence GAACGGCUUCAUACAGGAGUU, SEQ ID NO: 6 (listed as RNA, chemistry not given here; listed as Homo sapiens) | large decrease |
| hsa-miR-556: low-value miRNA from Pre-miRNA precursor library; mature sequence GAUGAGCUCAUUGUAAUAUGAG, SEQ ID NO: 8 (listed as RNA, chemistry not given here; listed as Homo sapiens) | large decrease |
| hsa-miR-639: low-value miRNA from Pre-miRNA precursor library; mature sequence AUCGCUGCGGUUGCGAGCGCUGU, SEQ ID NO: 5 (listed as RNA, chemistry not given here; listed as Homo sapiens) | large decrease |
